Measurements reported in patent publication US20040203067A1, “Methods for cancer prognosis and screening antiproliferative agents” (Temple University - Of The Commonwealth System of Higher …, priority 1998, published 2004).

Key:
phospho-STAT-3 = experiment: Phospho-STAT-3 immunoassay (Western blot) in BT20 breast cancer cells; type: cell-based, human; conditions: 25 μM
Procedure: Human breast carcinoma cell lines, BT20, 126, T47D, MCF-7, ZR75, BT474, 415, and 435 were maintained in Dulbecco's modified eagle medium (DMEM), supplemented with 10% fetal bovine serum (FBS) (complete medium) in a 37° C. incubator with 5% CO2. STAT-3 (C-20) antibody, which recognizes phosphorylated and non-phosphorylated STAT-3, was purchased from Santa Cruz Biotechnologies and utilized as a positive control. Phospho-STAT-3 antibody was purchased from New England Biolabs. Rabbit anti-mouse antibody (secondary antibody for anti-STAT-3 and antiphospho-STAT-3) were purchased from Amersham International.
BT-20 cells were seeded at a density of 2×10^6 cells per 100 mm diameter dish and allowed to grow for 24 hours. Fresh medium was added to each plate 2 hours before treatment with the compound. The compound was dissolved in DMSO to make 5 mM stock solution and added to the medium (10 ml) to obtain a final concentration of 25 μM. DMSO alone was added to the control cells to study the effect of vehicle. […]
Equal amounts total protein ([…]) were run in each lane of SDS-PAGE gel (10%) and transferred to IMMOBILON-P (Millipore, USA). […] The antibody was detected using the ECL Western blotting analysis kit (Amersham International) following the manufacturer's instructions.

BT20 cells = experiment: Killing of BT20 cells determined by Trypan blue exclusion; type: cell-based, human; conditions: 2.5 μM in DMSO, within 72 hours of treatment

For O=S(=O)(/C=C/c1ccc(F)cc1)Cc1ccc(Cl)cc1 [FRI-20, E-4-fluorostyryl 4-chlorobenzyl sulfone], which “phospho-STAT-3 staining after treatment” value (phospho-STAT-3; 48 hours at 37° C., phospho-STAT-3 antibody Western blot (FIG. 9)) is on record?
The value was “complete loss of phospho-STAT-3”.

And the “STAT-3 staining (STAT-3 expression) after treatment” value (phospho-STAT-3; 48 hours, STAT-3 antibody Western blot (FIG. 9))?
The value was “stained positive for STAT-3”.

And the BT20 cells killed (BT20 cells)?
The BT20 cells killed was “more than 95%”.
